Measured values reported in patent US20210007985A1, “LIPOSOMAL ANTI-INFECTIVE FORMULATIONS TO INHIBIT NON-TUBERCULOUS MYCOBACTERIA (NTM) MICROAGGREGATE FORMATION AND ESTABLISHMENT OF NTM BIOFILM” (ARADIGM CORPORATION, priority 2017, published 2021).
Converted amounts (≈) assume the structure as drawn.

Experiments:
M. avium biofilm = conditions: incubation of M. avium with antibiotic; McNabe et al. 2012; cited from earlier work
[1] = system: M. avium (MAC Strain 104); test: M. avium mouse lung infection model over 6 weeks; format: in vivo, mice; conditions: 1 mg/kg; 3 and 6 weeks
M. avium microaggregates = test: Electron micrographs of M. avium microaggregates on epithelial cell monolayer (FIG. 1); format: cell-based; conditions: 300 μg/mL; treatment added at t=0 h; growth over 24 h
Excerpt: FIG. 1 consists of FIGS. 1A, 1B, 1C, 1D and 1E.

M. avium = conditions: Inderlied et al, 1989; cited from earlier work
M. avium MAC 104 = test: Antimicrobial susceptibility (MIC, microdilution) of MAC 104 before and after treatment; format: cell-based; conditions: Mycobacterium avium, MAC104, read-out: MIC of M. avium to ciprofloxacin, before and after treatment
M. avium 109 = test: Activity against M. avium 109 in human macrophage (THP-1) model; format: cell-based; conditions: M. avium 109 in THP-1 macrophages; 20 μg/mL for 4 days
M. avium 101 = test: Activity against M. avium 101 in human macrophage (THP-1) model; format: cell-based

Compound: CC1(C)S[C@@H]2[C@H](NC(=O)[C@H](N)c3ccccc3)C(=O)N2[C@H]1C(=O)O [ampicillin]
- effect on M. avium biofilm formation (M. avium biofilm): no effect on biofilm

Compound: O=C(O)c1cn(C2CC2)c2cc(N3CCNCC3)c(F)cc2c1=O [Ciprofloxacin]
- statistical effect on lung CFU [1]: did not have a statistically significant effect
- microaggregate formation in electron micrographs (M. avium microaggregates): much less microaggregate formation than control
- minimum inhibitory concentration (MIC) (M. avium): 5 mg/L (≈ 15.1 µM)
- MIC (M. avium MAC 104): 8 mg/L
- CFU Day 4 (M. avium 109): 1.1 ± 0.4 × 10^4 CFU
- statistical effect on CFU in macrophages (M. avium 101; M. avium 101 and 109, 20 μg/ml, Day 4 vs Day 0): did not have a statistically significant effect
- CFU Day 0 (M. avium 101; M. avium 101 in THP-1 macrophages, initial infecting load before treatment at 20 μg/mL): 7 ± 0.2 × 10^4 CFU

Compound: [H]/N=C(/N)N[C@H]1[C@H](O)[C@@H](O)[C@H](O[C@@H]2O[C@@H](C)[C@](O)(C=O)[C@H]2O[C@@H]2O[C@@H](CO)[C@H](O)[C@@H](O)[C@@H]2NC)[C@@H](N/C(N)=N\[H])[C@@H]1O [streptomycin]
- effect on M. avium biofilm formation (M. avium biofilm): an increase, not decrease, in the biofilm formation

Compound: TMP/SMX
- effect on M. avium biofilm formation (M. avium biofilm): no effect on biofilm
